Data set [1] deals with P-gp. As to the kind of experiment: in vitro. The note with it: rat, pH 7.4. The method, then: To evaluate the effect of LC478 on P-gp mediated efflux activity in rat’s small intestine, transport experiments were conducted following the previously reported method. The incubation medium (pH 7.4) involving […], 5 mM KCl, 1.2 mM CaCl2, 1.2 mM MgCl2, 25 mM NaHCO3, 1.6 mM Na2HPO4, 0.4 mM NaH2PO4, 5 mM D-glucose, and 5 mM D-mannitol was used throughout the transport experiments. […] The small intestine (2 cm from the proximal part of jejunum) was removed, opened along the mesenteric border and rinsed immediately in ice-cold buffer (pH 7.4) under carbogen O2/CO2 (95%/5%) bubbling. The specimens were fixed to 0.61 cm^2 surface area of cells in the Ussing chambers without harming the underlying muscle layer and formed two compartments, mucosal (M) and serosal (S) chambers. […] Cumulative corrections were made for previously removed samples and apparent permeability coefficients (Papp, cm/s) were calculated as follows: Papp = Q/A·c·t, where Q is the total amount of the drug permeated throughout the incubation time, A is the diffusion area of the Ussing chamber, c is the initial drug concentration in the donor compartment, and t is the total time of the experiment. Efflux ratios were calculated from Papp values by: Efflux ratio = secretory Papp/absorptive Papp.

The conditions of data set [2]: cited from earlier work.

As to `CC(=O)O[C@@]12CO[C@@H]1C[C@H](O)[C@@]1(C)C(=O)[C@H](O)C3=C(C)[C@@H](OC(=O)[C@H](O)[C@@H](NC(=O)OC(C)(C)C)c4ccccc4)C[C@@](O)([C@@H](OC(=O)c4ccccc4)[C@H]21)C3(C)C` [docetaxel], the Papp B→A at 3 h, 1 µM in data set [1] came to 1.08 ± 0.115 ×10⁻⁶ cm/s. Besides, the oral bioavailability entry in data set [2] was “less than 5 % of the oral dose”.

Broadly, the Papp B→A is how fast a substance crosses the layer from the basolateral side.

(Values after publication PMC6471177 (Pharmaceutics, 2019).)
